Data as given in US20240158446A1, “CYCLIC COMPOUND HAVING SELECTIVE INHIBITORY ACTION ON KRAS OVER HRAS AND NRAS” (CHUGAI SEIYAKU KABUSHIKI KAISHA, priority 2021, published 2024).
pIC50, pKd: −log10 of the molar value. *1 amine or outer side, *2 acyl side, *3 side chain or, on linkers, in order; H or OH if unused. Where a SMILES comes first, the peptide text is derived from it. Bridges are numbered along the chain shown (N, C = ends). [ ]: non-standard residue; d: D form. The star is where a group is joined. hPhe(3,5-F2-4-CF3) = N[C@@H](CCc1cc(F)c(C(F)(F)F)c(F)c1)C(=O)O; hPhe(3-Cl-4-CF3) = N[C@@H](CCc1ccc(C(F)(F)F)c(Cl)c1)C(=O)O; NPrPhe(4-CF3) = CCCN[C@@H](Cc1ccc(C(F)(F)F)cc1)C(=O)O; NMeGly(cPent) = CN[C@H](C(=O)O)C1CCCC1; NMeD = CN[C@@H](CC(=O)O)C(=O)O; X1 = O=C(CN(CC(F)F)[*:1])[*:2]; NMeL = CN[C@@H](CC(C)C)C(=O)O; αMeL = CC(C)C[C@](C)(N)C(=O)O; αMeV = CC(C)[C@](C)(N)C(=O)O; αMeS = C[C@](N)(CO)C(=O)O; Morpholide = C1CN(*)CCO1; Ac5c = NC1(C(=O)O)CCCC1; Aze = O=C(O)[C@@H]1CCN1; Ac4c = NC1(C(=O)O)CCC1; NEtG = CCNCC(=O)O; Sar = CNCC(=O)O

Tests used:
[1] = target: GDP-bound NRAS wild-type protein (Homo sapiens, UniProt P01111); assay: Binding to NRAS by surface plasmon resonance (SPR), Single Cycle Kinetics; settings: SPR, GDP-bound NRAS wild-type protein vs GDP-bound KRAS wild-type protein
[2] = target: GDP-bound HRAS wild-type protein (Homo sapiens, UniProt P01112); assay: Binding to HRAS by surface plasmon resonance (SPR), Single Cycle Kinetics; settings: SPR, GDP-bound HRAS wild-type protein vs GDP-bound KRAS wild-type protein
[3] = tested on: human lung cancer strain NCI-H441;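 note: cell proliferation inhibition after four days measured by CellTiter-Glo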
[4] = target: GDP-bound KRAS wild-type protein (Homo sapiens, UniProt P01116); assay: Binding to KRAS by surface plasmon resonance (SPR), Single Cycle Kinetics; settings: SPR Single Cycle Kinetics, GDP-bound KRAS wild-type protein, 1:1 binding model; read-out: KRAS KD
Sequence of GDP-bound KRAS wild-type protein (P01116 whole entry): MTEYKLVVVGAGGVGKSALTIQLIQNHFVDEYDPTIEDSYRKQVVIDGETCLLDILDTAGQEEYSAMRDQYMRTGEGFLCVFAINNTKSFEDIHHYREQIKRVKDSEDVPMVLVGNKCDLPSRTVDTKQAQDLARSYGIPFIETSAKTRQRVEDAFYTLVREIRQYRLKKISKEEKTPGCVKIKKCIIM

Sequence of GDP-bound NRAS wild-type protein (P01111 whole entry): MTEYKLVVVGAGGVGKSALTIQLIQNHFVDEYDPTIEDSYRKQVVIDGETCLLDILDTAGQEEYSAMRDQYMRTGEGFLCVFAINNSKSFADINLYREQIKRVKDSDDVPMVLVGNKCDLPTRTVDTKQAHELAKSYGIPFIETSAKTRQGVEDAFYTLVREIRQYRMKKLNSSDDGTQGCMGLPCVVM
Sequence of GDP-bound HRAS wild-type protein (P01112 whole entry): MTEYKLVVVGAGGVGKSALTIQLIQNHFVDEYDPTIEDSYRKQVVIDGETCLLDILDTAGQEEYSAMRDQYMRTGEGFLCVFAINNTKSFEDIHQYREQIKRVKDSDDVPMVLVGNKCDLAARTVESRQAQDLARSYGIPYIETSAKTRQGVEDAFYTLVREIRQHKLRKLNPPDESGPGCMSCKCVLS

Structure (SMILES) | NRAS/KRAS (ratio of KD value for NRAS to KD value for KRAS) [1] | HRAS/KRAS (ratio of KD value for HRAS to KD value for KRAS) [2] | pIC50 [3] | pKd [4] | NRAS/KRAS (ratio of KD value with respect to NRAS to KD value with respect to KRAS) [1] | HRAS/KRAS (ratio of KD value with respect to HRAS to KD value with respect to KRAS) [2]
CCCN1C(=O)CN(C)C(=O)CN(CC)C(=O)[C@H]([C@@H](C)CC)NC(=O)[C@H](CC(C)C)N(C)C(=O)C[C@@H](C(=O)N2CCOCC2)N(C)C(=O)[C@H](C2CCCC2)N(C)C(=O)C2(CCC2)NC(=O)[C@@H]2CCCN2C(=O)[C@H](CCc2ccc(C(F)(F)F)c(Cl)c2)NC(=O)CN(C)C(=O)[C@@H]1Cc1ccc(C(F)(F)F)cc1 [PP0398] ([NMeL]I[NEtG][Sar][NPrPhe(4-CF3)][Sar][hPhe(3-Cl-4-CF3)]P[Ac4c][NMeGly(cPent)][NMeD]-Morpholide; lactam N-11) | B (a compound having 3 or more and less than 10 is denoted as B) | C (A compound having a KD ratio of 0.1 or more and less than 3 is denoted as C) | 8.44 | 9.32 |  | 
CCCN1C(=O)[C@@H]2CCN2C(=O)CN(C)C(=O)[C@H]([C@@H](C)CC)NC(=O)[C@H](CC(C)C)N(C)C(=O)C[C@@H](C(=O)N2CCOCC2)N(C)C(=O)[C@H](C2CCCC2)N(C)C(=O)C2(CCC2)NC(=O)[C@@H]2CCCN2C(=O)[C@H](CCc2ccc(C(F)(F)F)c(Cl)c2)NC(=O)CN(C)C(=O)[C@@H]1Cc1ccc(C(F)(F)F)cc1 [PP0407] ([NMeL]I[Sar][Aze][NPrPhe(4-CF3)][Sar][hPhe(3-Cl-4-CF3)]P[Ac4c][NMeGly(cPent)][NMeD]-Morpholide; lactam N-11) | C (A compound having a KD ratio of 0.1 or more and less than 3 is denoted as C) | B (a compound having 3 or more and less than 10 is denoted as B) | 8.12 | 9.96 |  | 
CCCN1C(=O)CN(C)C(=O)CN(CC)C(=O)[C@H]([C@@H](C)CC)NC(=O)[C@H](CC(C)C)N(C)C(=O)C[C@@H](C(=O)N(C)C)N(C)C(=O)[C@H](C2CCCC2)N(C)C(=O)C2(CCCC2)NC(=O)[C@@H]2CCCN2C(=O)[C@H](CCc2ccc(C(F)(F)F)c(Cl)c2)NC(=O)CN(C)C(=O)[C@@H]1Cc1ccc(C(F)(F)F)cc1 [PP0423] ([NMeL]I[NEtG][Sar][NPrPhe(4-CF3)][Sar][hPhe(3-Cl-4-CF3)]P[Ac5c][NMeGly(cPent)][NMeD]-NMe2; lactam N-11) |  |  | 8.15 | 9.74 | B (a compound having 3 or more and less than 10 is denoted as B) | C (A compound having a KD ratio of 0.1 or more and less than 3 is denoted as C)
CC[C@H](C)[C@@H]1NC(=O)[C@H](CC(C)C)N(C)C(=O)C[C@@H](C(=O)N2CCOCC2)N(C)C(=O)[C@H](C2CCCC2)N(C)C(=O)C2(CCCC2)NC(=O)[C@@H]2[C@@H](O)CCN2C(=O)[C@H](CCc2cc(F)c(C(F)(F)F)c(F)c2)NC(=O)CN(C)C(=O)[C@H](Cc2ccc(C(F)(F)F)cc2)N2CCCC[C@@H](C2=O)N(C)C(=O)CN(C)C1=O [PP0558] |  |  | 7.50 | 10.17 | B (a compound having 3 or more and less than 10 is denoted as B) | B (a compound having 3 or more and less than 10 is denoted as B)
CC[C@H](C)[C@@H]1NC(=O)[C@@H]2CCCCCN2C(=O)C[C@@H](C(=O)N2CCOCC2)N(C)C(=O)[C@H](C2CCCC2)N(C)C(=O)C2(CCCC2)NC(=O)[C@@H]2CCCN2C(=O)[C@H](CCc2cc(F)c(C(F)(F)F)c(F)c2)NC(=O)CN(C)C(=O)[C@H](Cc2ccc(C(F)(F)F)cc2)N2CCCC[C@@H](C2=O)N(C)C(=O)CN(C)C1=O [PP0595] |  |  | 7.10 | 9.00 | C (A compound having a KD ratio of 0.1 or more and less than 3 is denoted as C) | B (a compound having 3 or more and less than 10 is denoted as B)
CCO[C@@H]1C[C@H]2C(=O)NC3(CCC3)C(=O)N(C)[C@@H](C3CCCC3)C(=O)N(CCC3CCCC3)[C@H](C(=O)N(C)C)CC(=O)N(C)[C@@H](CC)C(=O)N[C@@H]([C@@H](C)CC)C(=O)N(C)CC(=O)N(C)[C@H]3CCCCN(C3=O)[C@@H](Cc3ccc(C(F)(F)F)cc3)C(=O)N(C)CC(=O)N[C@@H](CCc3cc(F)c(C(F)(F)F)c(F)c3)C(=O)N2C1 [PP0646] |  |  | 7.77 | 9.85 | C (A compound having a KD ratio of 0.1 or more and less than 3 is denoted as C) | B (a compound having 3 or more and less than 10 is denoted as B)
CCO[C@@H]1C[C@H]2C(=O)NC3(CCC3)C(=O)N(C)[C@@H](C3CCCC3)C(=O)N(CCc3ccccc3)[C@H](C(=O)N3CCOCC3)CC(=O)N(C)[C@@H](CC(C)C)C(=O)N[C@@H]([C@@H](C)CC)C(=O)N(C)CC(=O)N(C)[C@H]3CCCCN(C3=O)[C@@H](Cc3ccc(C(F)(F)F)cc3)C(=O)N(C)CC(=O)N[C@@H](CCc3cc(F)c(C(F)(F)F)c(F)c3)C(=O)N2C1 [PP0652] |  |  | 6.68 | 8.60 | B (a compound having 3 or more and less than 10 is denoted as B) | B (a compound having 3 or more and less than 10 is denoted as B)
CCO[C@@H]1C[C@H]2C(=O)NC3(CCC3)C(=O)N(C)[C@@H](C3CCCC3)C(=O)N(C)[C@H](C(=O)N3CCOCC3)CC(=O)N(C)C(C)(C)C(=O)N[C@@H]([C@@H](C)CC)C(=O)N(C)CC(=O)N(C)[C@H]3CCCCN(C3=O)[C@@H](Cc3ccc(C(F)(F)F)cc3)C(=O)N(C)CC(=O)N[C@@H](CCc3cc(F)c(C(F)(F)F)c(F)c3)C(=O)N2C1 [PP0722] |  |  | 5.59 | 7.60 | C (A compound having a KD ratio of 0.1 or more and less than 3 is denoted as C) | B (a compound having 3 or more and less than 10 is denoted as B)
CCO[C@@H]1C[C@H]2C(=O)NC3(CC=CC3)C(=O)N(C)[C@@H](C3CCCC3)C(=O)N(C)[C@H](C(=O)N(C)C)CC(=O)N(C)[C@@H](C)C(=O)N[C@@H]([C@@H](C)CC)C(=O)N(C)CC(=O)N(C)[C@H]3CCCCCN(C3=O)[C@@H](Cc3ccc(C(F)(F)F)cc3)C(=O)N(C)CC(=O)N[C@@H](CCc3cc(F)c(C(F)(F)F)c(F)c3)C(=O)N2C1 [PP0724] |  |  | 6.90 | 9.36 | B (a compound having 3 or more and less than 10 is denoted as B) | B (a compound having 3 or more and less than 10 is denoted as B)
CCCN1C(=O)CN(C)C(=O)CN(CC(F)F)C(=O)[C@H]([C@@H](C)CC)NC(=O)[C@H](CC(C)C)N(C)C(=O)C[C@@H](C(=O)N2CCOCC2)N(C)C(=O)[C@H](C2CCCC2)N(C)C(=O)C2(CCCC2)NC(=O)[C@@H]2CCCN2C(=O)[C@H](CCc2ccc(C(F)(F)F)c(Cl)c2)NC(=O)CN(C)C(=O)[C@@H]1Cc1ccc(C(F)(F)F)cc1 [PP0752] ([NMeL]I[X1][Sar][NPrPhe(4-CF3)][Sar][hPhe(3-Cl-4-CF3)]P[Ac5c][NMeGly(cPent)][NMeD]-Morpholide; lactam N-11) |  |  | 7.59 | 9.27 | B (a compound having 3 or more and less than 10 is denoted as B) | B (a compound having 3 or more and less than 10 is denoted as B)
CCCN1C(=O)CN(C)C(=O)CN(C)C(=O)[C@H]([C@@H](C)CC)NC(=O)[C@H](CC(C)C)N(C)C(=O)C[C@@H](C(=O)N2CCOCC2)N(C)C(=O)[C@H](C2CCCC2)N(C)C(=O)[C@](C)(C(C)C)NC(=O)[C@@H]2CCCN2C(=O)[C@H](CCc2cc(F)c(C(F)(F)F)c(F)c2)NC(=O)CN(C)C(=O)[C@@H]1Cc1ccc(C(F)(F)F)cc1 [PP0756] ([NMeL]I[Sar][Sar][NPrPhe(4-CF3)][Sar][hPhe(3,5-F2-4-CF3)]P[αMeV][NMeGly(cPent)][NMeD]-Morpholide; lactam N-11) |  |  | 7.16 | 9.06 | B (a compound having 3 or more and less than 10 is denoted as B) | B (a compound having 3 or more and less than 10 is denoted as B)
CCCN1C(=O)CN(C)C(=O)CN(C)C(=O)[C@H]([C@@H](C)CC)NC(=O)[C@H](CC(C)C)N(C)C(=O)C[C@@H](C(=O)N2CCOCC2)N(C)C(=O)[C@H](C2CCCC2)N(C)C(=O)[C@](C)(CC(C)C)NC(=O)[C@@H]2CCCN2C(=O)[C@H](CCc2cc(F)c(C(F)(F)F)c(F)c2)NC(=O)CN(C)C(=O)[C@@H]1Cc1ccc(C(F)(F)F)cc1 [PP0759] ([NMeL]I[Sar][Sar][NPrPhe(4-CF3)][Sar][hPhe(3,5-F2-4-CF3)]P[αMeL][NMeGly(cPent)][NMeD]-Morpholide; lactam N-11) |  |  | 6.73 | 8.57 | B (a compound having 3 or more and less than 10 is denoted as B) | B (a compound having 3 or more and less than 10 is denoted as B)
CCCN1C(=O)CN(C)C(=O)CN(C)C(=O)[C@H]([C@@H](C)CC)NC(=O)[C@H](CC(C)C)N(C)C(=O)C[C@@H](C(=O)N2CCOCC2)N(C)C(=O)[C@H](C2CCCC2)N(C)C(=O)[C@](C)(COC)NC(=O)[C@@H]2CCCN2C(=O)[C@H](CCc2cc(F)c(C(F)(F)F)c(F)c2)NC(=O)CN(C)C(=O)[C@@H]1Cc1ccc(C(F)(F)F)cc1 [PP0762] ([NMeL]I[Sar][Sar][NPrPhe(4-CF3)][Sar][hPhe(3,5-F2-4-CF3)]P[αMeS](Me)[NMeGly(cPent)][NMeD]-Morpholide; lactam N-11) |  |  | 7.52 | 9.14 | B (a compound having 3 or more and less than 10 is denoted as B) | B (a compound having 3 or more and less than 10 is denoted as B)
